Measured values published in ChEMBL document CHEMBL4177668, “Synthesis and biological evaluation of thiazole derivatives as GPR119 agonists” (Bioorg Med Chem Lett, 2017).
Active and inactive are the calls of the source. No cut-off for these calls is given here.

Legend:
[1] = target: T1, Glucose-dependent insulinotropic receptor (Homo sapiens) (UniProt Q8TDV5); assay: Activation of human GPR119 expressed in CHOK1 cells co-expressing CRE-luciferase at 1 uM after 6 hrs by luciferase reporter gene assay relative to GSK1292263; assay type: functional, cell-based
T1 sequence (whole entry): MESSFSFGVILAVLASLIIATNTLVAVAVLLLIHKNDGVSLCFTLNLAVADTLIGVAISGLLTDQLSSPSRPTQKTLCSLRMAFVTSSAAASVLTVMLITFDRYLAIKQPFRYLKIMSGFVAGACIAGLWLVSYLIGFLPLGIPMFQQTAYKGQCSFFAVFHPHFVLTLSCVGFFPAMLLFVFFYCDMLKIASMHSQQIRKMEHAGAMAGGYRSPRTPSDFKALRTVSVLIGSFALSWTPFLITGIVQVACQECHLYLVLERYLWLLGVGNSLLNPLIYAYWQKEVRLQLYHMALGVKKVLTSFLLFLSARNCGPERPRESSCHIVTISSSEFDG

[2] = target: T2, Glucose-dependent insulinotropic receptor (Homo sapiens, UniProt Q8TDV5); assay: Agonist activity at human GPR119 expressed in CHOK1 cells co-expressing CRE-luciferase after 6 hrs by luciferase reporter gene assay; assay type: functional, cell-based
T2 sequence (Q8TDV5 whole entry): T1 sequence (whole entry)

HFL1 = assay: Cytotoxicity against HFL1 cells; assay type: cell-based; details: Homo sapiens
Cytochrome P450 2A6 = target: T3, Cytochrome P450 2A6 (Homo sapiens, UniProt P11509); assay: Inhibition of CYP2A6 (unknown origin); assay type: ADME
T3 sequence (P11509 whole entry): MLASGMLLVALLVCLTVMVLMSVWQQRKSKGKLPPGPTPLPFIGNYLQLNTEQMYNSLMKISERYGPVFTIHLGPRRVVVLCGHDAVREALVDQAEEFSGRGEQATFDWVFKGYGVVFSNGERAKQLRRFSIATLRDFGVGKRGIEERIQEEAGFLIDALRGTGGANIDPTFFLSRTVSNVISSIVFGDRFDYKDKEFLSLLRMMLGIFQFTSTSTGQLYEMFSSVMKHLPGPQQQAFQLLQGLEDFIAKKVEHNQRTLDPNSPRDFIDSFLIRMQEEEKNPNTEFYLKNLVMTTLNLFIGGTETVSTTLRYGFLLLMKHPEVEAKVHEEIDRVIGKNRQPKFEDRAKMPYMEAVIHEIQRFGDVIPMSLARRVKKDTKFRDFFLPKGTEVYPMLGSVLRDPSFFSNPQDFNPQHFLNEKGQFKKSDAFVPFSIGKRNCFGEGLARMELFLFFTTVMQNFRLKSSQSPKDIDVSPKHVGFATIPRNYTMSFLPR

hERG (KCNH2) = hERG (KCNH2) (Homo sapiens, UniProt Q12809); assay: Inhibition of human ERG at 10 uM
[3] = Metabolic stability in human liver microsomes assessed as compound remaining after 30 mins; assay type: ADME, microsome; details: read-out: Stability
L929 = assay: Cytotoxicity against mouse L929 cells; assay type: cell-based
Mus musculus = assay: Antidiabetic activity in C57BL/6 mouse assessed as decrease in plasma glucose AUC at 30 mg/kg, po pretreated for 30 mins followed by glucose challenge measured up to 120 mins by oGTT assay; assay type: functional, organism-based
Vero = assay: Cytotoxicity against African green monkey Vero cells; assay type: cell-based; details: Chlorocebus sabaeus
Cytochrome P450 2C19 = Cytochrome P450 2C19 (Homo sapiens, UniProt P33261); assay: Inhibition of CYP2C19 (unknown origin); assay type: ADME
Cytochrome P450 3A4 = Cytochrome P450 3A4 (Homo sapiens, UniProt P08684); assay: Inhibition of CYP3A4 (unknown origin); assay type: ADME
NIH3T3 = assay: Cytotoxicity against mouse NIH/3T3 cells; assay type: cell-based
Cytochrome P450 2D6 = Cytochrome P450 2D6 (Homo sapiens, UniProt P10635); assay: Inhibition of CYP2D6 (unknown origin); assay type: ADME
CHO-K1 = assay: Cytotoxicity against CHOK1 cells; assay type: cell-based; details: Cricetulus griseus
Cytochrome P450 1A2 = target: T4, Cytochrome P450 1A2 (Homo sapiens, UniProt P05177); assay: Inhibition of CYP1A2 (unknown origin); assay type: ADME
T4 sequence (P05177 whole entry): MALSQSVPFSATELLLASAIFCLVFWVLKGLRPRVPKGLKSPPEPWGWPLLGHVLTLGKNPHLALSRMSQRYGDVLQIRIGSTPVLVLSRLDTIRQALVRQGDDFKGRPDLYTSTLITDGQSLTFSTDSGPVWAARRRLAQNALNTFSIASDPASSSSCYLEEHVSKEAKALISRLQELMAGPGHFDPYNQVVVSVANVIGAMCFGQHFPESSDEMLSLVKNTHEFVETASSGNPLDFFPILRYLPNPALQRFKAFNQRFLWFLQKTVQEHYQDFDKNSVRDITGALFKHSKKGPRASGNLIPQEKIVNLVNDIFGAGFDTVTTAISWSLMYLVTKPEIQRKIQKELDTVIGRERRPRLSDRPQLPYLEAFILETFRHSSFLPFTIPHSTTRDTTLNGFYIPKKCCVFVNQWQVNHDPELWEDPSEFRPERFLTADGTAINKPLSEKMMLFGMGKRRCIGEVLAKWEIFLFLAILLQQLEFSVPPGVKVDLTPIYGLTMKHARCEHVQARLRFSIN

[4] = Metabolic stability in rat liver microsomes assessed as compound remaining after 30 mins; assay type: ADME, microsome; details: read-out: Stability

Chain of Cytochrome P450 3A4 (P08684 whole entry): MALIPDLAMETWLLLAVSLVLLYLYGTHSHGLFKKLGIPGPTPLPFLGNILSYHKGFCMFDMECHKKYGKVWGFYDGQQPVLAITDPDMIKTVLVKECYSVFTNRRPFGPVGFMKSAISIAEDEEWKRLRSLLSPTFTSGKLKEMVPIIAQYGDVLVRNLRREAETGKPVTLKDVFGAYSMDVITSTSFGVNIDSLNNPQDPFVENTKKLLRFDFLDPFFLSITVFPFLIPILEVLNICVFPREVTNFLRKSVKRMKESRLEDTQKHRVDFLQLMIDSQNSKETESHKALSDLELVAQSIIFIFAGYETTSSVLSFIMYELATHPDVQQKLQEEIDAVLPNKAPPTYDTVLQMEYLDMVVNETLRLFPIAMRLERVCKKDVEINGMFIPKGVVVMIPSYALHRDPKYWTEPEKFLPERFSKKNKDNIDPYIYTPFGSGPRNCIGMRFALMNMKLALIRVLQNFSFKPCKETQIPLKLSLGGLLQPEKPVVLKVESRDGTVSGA
Chain of hERG (KCNH2) (Q12809 whole entry): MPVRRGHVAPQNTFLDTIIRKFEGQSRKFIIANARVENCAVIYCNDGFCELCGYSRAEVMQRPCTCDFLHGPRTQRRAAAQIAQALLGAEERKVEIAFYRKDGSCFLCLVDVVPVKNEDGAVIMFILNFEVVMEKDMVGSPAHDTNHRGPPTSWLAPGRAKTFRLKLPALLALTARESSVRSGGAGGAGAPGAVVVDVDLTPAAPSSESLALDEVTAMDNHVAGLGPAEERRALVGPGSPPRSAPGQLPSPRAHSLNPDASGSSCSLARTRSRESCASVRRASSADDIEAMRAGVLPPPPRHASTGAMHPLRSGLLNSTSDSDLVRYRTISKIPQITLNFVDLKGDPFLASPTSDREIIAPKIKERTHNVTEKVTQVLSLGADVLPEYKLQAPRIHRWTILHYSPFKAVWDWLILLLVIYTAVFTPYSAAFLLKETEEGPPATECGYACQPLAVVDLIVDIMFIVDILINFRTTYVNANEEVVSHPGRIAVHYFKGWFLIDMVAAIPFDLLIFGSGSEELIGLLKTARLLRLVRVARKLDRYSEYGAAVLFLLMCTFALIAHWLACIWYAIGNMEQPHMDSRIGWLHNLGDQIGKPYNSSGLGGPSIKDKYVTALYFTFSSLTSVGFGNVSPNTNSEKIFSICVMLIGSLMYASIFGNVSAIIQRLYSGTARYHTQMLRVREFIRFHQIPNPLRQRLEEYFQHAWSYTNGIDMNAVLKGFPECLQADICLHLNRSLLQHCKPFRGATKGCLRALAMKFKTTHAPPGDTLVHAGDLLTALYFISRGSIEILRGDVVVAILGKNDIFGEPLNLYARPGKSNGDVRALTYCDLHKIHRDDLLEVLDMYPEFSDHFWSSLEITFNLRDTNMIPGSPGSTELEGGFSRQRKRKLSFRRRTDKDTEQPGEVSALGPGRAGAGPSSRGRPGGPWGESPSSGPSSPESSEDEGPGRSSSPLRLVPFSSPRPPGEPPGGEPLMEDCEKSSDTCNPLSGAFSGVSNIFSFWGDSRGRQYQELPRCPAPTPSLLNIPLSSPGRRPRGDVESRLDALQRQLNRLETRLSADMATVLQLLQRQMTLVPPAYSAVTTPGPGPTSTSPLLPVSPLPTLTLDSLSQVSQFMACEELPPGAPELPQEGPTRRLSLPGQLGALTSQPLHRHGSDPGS
Chain of Cytochrome P450 2C19 (P33261 whole entry): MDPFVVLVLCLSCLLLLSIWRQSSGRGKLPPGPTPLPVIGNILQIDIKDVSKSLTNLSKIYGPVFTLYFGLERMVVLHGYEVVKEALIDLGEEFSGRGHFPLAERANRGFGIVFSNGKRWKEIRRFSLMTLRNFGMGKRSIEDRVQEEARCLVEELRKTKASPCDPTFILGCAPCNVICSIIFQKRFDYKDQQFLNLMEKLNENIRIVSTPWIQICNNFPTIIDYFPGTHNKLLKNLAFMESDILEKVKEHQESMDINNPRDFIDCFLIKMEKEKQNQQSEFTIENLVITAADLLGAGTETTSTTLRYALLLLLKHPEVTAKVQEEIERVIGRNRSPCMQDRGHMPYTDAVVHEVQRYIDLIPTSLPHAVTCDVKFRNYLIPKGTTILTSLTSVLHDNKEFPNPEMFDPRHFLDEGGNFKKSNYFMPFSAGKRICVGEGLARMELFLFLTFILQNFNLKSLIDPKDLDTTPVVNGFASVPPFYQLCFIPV
Chain of Cytochrome P450 2D6 (P10635 whole entry): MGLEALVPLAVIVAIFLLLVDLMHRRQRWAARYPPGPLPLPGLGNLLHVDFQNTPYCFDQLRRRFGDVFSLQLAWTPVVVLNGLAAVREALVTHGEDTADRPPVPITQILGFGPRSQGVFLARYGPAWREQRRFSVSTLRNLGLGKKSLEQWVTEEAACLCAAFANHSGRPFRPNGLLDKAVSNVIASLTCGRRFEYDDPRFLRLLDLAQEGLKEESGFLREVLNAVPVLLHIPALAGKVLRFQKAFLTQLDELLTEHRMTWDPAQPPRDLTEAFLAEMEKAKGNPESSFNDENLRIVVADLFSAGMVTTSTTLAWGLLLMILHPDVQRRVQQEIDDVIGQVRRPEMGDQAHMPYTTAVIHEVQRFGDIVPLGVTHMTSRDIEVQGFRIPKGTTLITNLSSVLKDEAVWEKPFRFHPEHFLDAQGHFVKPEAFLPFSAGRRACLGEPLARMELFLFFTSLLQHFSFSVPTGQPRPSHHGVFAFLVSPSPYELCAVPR

| Activity [1] [%] | EC50 [2] [nM] | Structure (SMILES) | other results |
| --- | --- | --- | --- |
| 43 | – | CCc1cnc(N2CCC(c3nc(COc4ccc(/C=C5\SC(=S)N(N)C5=O)cc4F)cs3)CC2)nc1 | – |
| 28 | – | C[N+](C)(C)CCNC(=O)CCc1cnc(N2CCC(c3nc(COc4ccc(-n5cnnn5)cc4)cs3)CC2)nc1 | – |
| 55 | – | CCc1cnc(N2CCC(c3nc(COc4ccc(/C=C/C(=O)O)cc4F)cs3)CC2)nc1 | – |
| 26 | – | O=C(CCc1cnc(N2CCC(c3nc(COc4ccc(-n5cnnn5)cc4)cs3)CC2)nc1)NOCc1ccccc1 | – |
| 31 | – | CC(C)(O)CN1CCC(c2nc(COc3ccc(/C=C4\CC(=O)NC4=O)cc3F)cs2)CC1 | – |
| 51 | – | CCc1cnc(N2CCC(c3nc(COc4ccc(/C=C5\CC(=O)N(CCN)C5=O)cc4F)cs3)CC2)nc1 | – |
| 91 | 87 | CCc1cnc(N2CCC(c3nc(COc4ccc(-n5cnnn5)cc4)cs3)CC2)nc1 [MBX-2982] | IC50 (HFL1): > 100000 nM; INH (Cytochrome P450 2A6): 3.53 µM; inhibition at 10 µM (hERG (KCNH2)): 10.5%; remaining at 0.5 h [3]: 7.8%; IC50 (L929): > 100000 nM; Activity (Mus musculus): Active; IC50 (Vero): > 100000 nM; INH (Cytochrome P450 2C19): > 100 µM; INH (Cytochrome P450 3A4): 2.24 µM; IC50 (NIH3T3): > 100000 nM; INH (Cytochrome P450 2D6): > 100 µM; IC50 (CHO-K1): > 100000 nM; INH (Cytochrome P450 1A2): > 100 µM; remaining at 0.5 h [4]: 20.6% |
| 32 | – | CC(C)(O)CN1CCC(c2nc(COc3c(F)cc(/C=C4\CC(=O)NC4=O)cc3F)cs2)CC1 | – |
| 61 | 240 | CCc1cnc(N2CCC(c3nc(COc4ccc(/C=C5\CC(=O)N(CC6CCOCC6)C5=O)cc4F)cs3)CC2)nc1 | – |
| 63 | – | CCc1cnc(N2CCC(c3nc(COc4ccc(/C=C5\CC(=O)N(CCNC(=O)OC(C)(C)C)C5=O)cc4F)cs3)CC2)nc1 | – |
| 59 | 211 | CCc1cnc(N2CCC(c3nc(COc4c(F)cc(/C=C5\CC(=O)NC5=O)cc4F)cs3)CC2)nc1 | – |
| 57 | – | CC(C)(C)OC(=O)N1CCC(c2nc(COc3ccc(/C=C4\CC(=O)NC4=O)cc3)cs2)CC1 | – |
| 49 | – | CCc1cnc(N2CCC(c3nc(COc4ccc(/C=C5\CC(=O)N(CCN6CCOCC6)C5=O)cc4F)cs3)CC2)nc1 | – |
| 48 | – | CC(C)(F)CN1CCC(c2nc(COc3ccc(/C=C4\CC(=O)NC4=O)cc3)cs2)CC1 | – |
| 32 | – | CCc1cnc(N2CCC(c3nc(COc4ccc(/C=C5\CC(=S)N(CC(=O)O)C5=O)cc4F)cs3)CC2)nc1 | – |
| 46 | – | Cc1cc(/C=C2\CC(=O)NC2=O)ccc1OCc1csc(C2CCN(CC(C)(C)F)CC2)n1 | – |
| 71 | 182 | CCc1cnc(N2CCC(c3nc(COc4ccc(/C=C5\CC(=O)NC5=O)cc4)cs3)CC2)nc1 | – |
| 25 | – | [N-]=[N+]=NCCOCCOCCOCCNC(=O)CCc1cnc(N2CCC(c3nc(COc4ccc(-n5cnnn5)cc4)cs3)CC2)nc1 | – |
| 20 | – | N=C(N)NC(=N)N1CCC(c2nc(COc3ccc(-n4cnnn4)cc3)cs2)CC1 | – |

Further lines, the molecule ahead of its results:

| Structure (SMILES) | Activity [1] [%] | EC50 [2] [nM] | other results |
| --- | --- | --- | --- |
| CCc1cnc(N2CCC(c3nc(COc4ccc(/C=C5\CCNC5=O)cc4F)cs3)CC2)nc1 | 65 | 100 | – |
| Cc1cc(/C=C2\CC(=O)NC2=O)ccc1OCc1csc(C2CCN(C(=O)OC(C)(C)C)CC2)n1 | 81 | 19 | – |
| CCc1cnc(N2CCC(c3nc(COc4ccc(/C=C5\CC(=O)NC5=O)cc4C)cs3)CC2)nc1 | 90 | 18 | IC50 (HFL1): > 100000 nM; INH (Cytochrome P450 2A6): > 100 µM; inhibition at 10 µM (hERG (KCNH2)): 3.3%; remaining at 0.5 h [3]: 17.1%; IC50 (L929): > 100000 nM; Activity (Mus musculus): Active; IC50 (Vero): > 100000 nM; INH (Cytochrome P450 2C19): > 100 µM; INH (Cytochrome P450 3A4): > 13.8 µM; IC50 (NIH3T3): > 100000 nM; INH (Cytochrome P450 2D6): > 100 µM; IC50 (CHO-K1): > 100000 nM; INH (Cytochrome P450 1A2): > 100 µM; remaining at 0.5 h [4]: 32.4% |
| CC(C)(C)OC(=O)N1CCC(c2nc(COc3c(F)cc(/C=C4\CC(=O)NC4=O)cc3F)cs2)CC1 | 41 | – | – |
| CCc1cnc(N2CCC(c3nc(COc4ccc(/C=C5\SC(=O)NC5=O)cc4F)cs3)CC2)nc1 | 60 | 780 | – |
| CC(C)(F)CN1CCC(c2nc(COc3ccc(/C=C4\CC(=O)NC4=O)cc3F)cs2)CC1 | 53 | – | – |
| CCOC(=O)CCc1cnc(N2CCC(c3nc(COc4ccc(-n5cnnn5)cc4)cs3)CC2)nc1 | 34 | – | – |
| O=C(O)CCc1cnc(N2CCC(c3nc(COc4ccc(-n5cnnn5)cc4)cs3)CC2)nc1 | 29 | – | – |
| NC(=O)CCc1cnc(N2CCC(c3nc(COc4ccc(-n5cnnn5)cc4)cs3)CC2)nc1 | 22 | – | – |
| Cc1cc(/C=C2\CC(=O)NC2=O)ccc1OCc1csc(C2CCN(CC(C)(C)O)CC2)n1 | 36 | – | – |
| CC(C)(C)OC(=O)N1CCC(c2nc(COc3ccc(-n4cnnn4)cc3)cs2)CC1 | 118 | 103 | – |
| CC(C)(C)OC(=O)NCCNC(=O)CCc1cnc(N2CCC(c3nc(COc4ccc(-n5cnnn5)cc4)cs3)CC2)nc1 | 30 | – | – |
| NCCNC(=O)CCc1cnc(N2CCC(c3nc(COc4ccc(-n5cnnn5)cc4)cs3)CC2)nc1 | 27 | – | – |
| CCc1cnc(N2CCC(c3nc(COc4ccc(/C=C5\SC(=S)NC5=O)cc4F)cs3)CC2)nc1 | 39 | – | – |
| CCc1cnc(N2CCC(c3nc(COc4ccc(/C=C5\CC(=O)N(c6ccccc6)C5=O)cc4F)cs3)CC2)nc1 | 67 | 82 | – |
| CCc1cnc(N2CCC(c3nc(COc4ccc(/C=C5\CC(=O)NC5=O)cc4F)cs3)CC2)nc1 | 94 | 49 | IC50 (HFL1): > 100000 nM; INH (Cytochrome P450 2A6): > 100 µM; inhibition at 10 µM (hERG (KCNH2)): 5.3%; remaining at 0.5 h [3]: 48.9%; IC50 (L929): > 100000 nM; Activity (Mus musculus): Active; IC50 (Vero): > 100000 nM; INH (Cytochrome P450 2C19): > 100 µM; INH (Cytochrome P450 3A4): > 100 µM; IC50 (NIH3T3): > 100000 nM; INH (Cytochrome P450 2D6): > 100 µM; IC50 (CHO-K1): > 100000 nM; INH (Cytochrome P450 1A2): > 100 µM; remaining at 0.5 h [4]: 33% |
| CC(C)(O)CN1CCC(c2nc(COc3ccc(/C=C4\CC(=O)NC4=O)cc3)cs2)CC1 | 27 | – | – |
| CC(C)(C)OC(=O)N1CCC(c2nc(COc3ccc(/C=C4\CC(=O)NC4=O)cc3F)cs2)CC1 | 69 | 157 | – |
| CC(C)(F)CN1CCC(c2nc(COc3c(F)cc(/C=C4\CC(=O)NC4=O)cc3F)cs2)CC1 | 42 | – | – |
| NCCOCCOCCOCCNC(=O)CCc1cnc(N2CCC(c3nc(COc4ccc(-n5cnnn5)cc4)cs3)CC2)nc1 | 28 | – | – |
